Like-named read-outs stand apart in the source and are kept apart here.
Columns and labels:
[1] = test system: methicillin-susceptible S. aureus (MSSA), MRSA and mutants thereof; assay: MIC measurement, Test Example 3 (MSSA, MRSA and sequential gyrA/grlA quinolone-resistant mutants); assay type: cell-based, Staphylococcus aureus; conditions: Staphylococcus aureus
Excerpt: That is, the first-step quinolone-resistant mutants are bacterial strains which are the same as their parent strains (clinical isolates) except that the genes shown in the corresponding parts of Table 1-1 are mutated. The second-step quinolone-resistant mutants are bacterial strains which are the same as the first-step quinolone-resistant mutants except that the genes shown in the corresponding parts of Table 1-1 are further mutated. The third-step quinolone-resistant mutants are bacterial strains which are the same as the second-step quinolone-resistant mutants except that the genes shown in the corresponding parts of Table 1-1 are further mutated. The fourth-step quinolone-resistant strain is a bacterial strain which is the same as the third-step quinolone-resistant mutant bacteria except that the gene shown in the corresponding part of Table 1-1 is further mutated.
(§1) Each of the bacterial strains listed in Table 1-1 was shake-cultured at 37° C. overnight in 4 mL of a medium (Tryptical Soy Broth: TSB, product of Becton Dickinson and Company). FDA209P was used as a control.
(§2) After completion of culturing, the resultant culture was suspended in a cation-adjusted Mueller Hinton Broth (CAMHB, product of Becton Dickinson and Company). Then, the obtained bacterial culture was adjusted in absorbance with the CAMHB so that the absorbance at 578 nm of the bacterial culture was adjusted to 0.3 measured by an absorption spectrometer. In addition, the resultant bacterial culture was 500-fold diluted with the CAMHB.
(§3) Each of the 500-fold diluted, pre-cultured bacterial cultures was added at 50 μL/well to the CAMHB containing the quinolones and the nybomycins at various concentrations (50 μL/well), followed by statically culturing at 37° C. overnight.
(§4) After completion of culturing, the growth of the bacteria was visually determined based on turbidity to measure MIC in each bacterial strain.

[2] = test system: VISA clinical isolates of MRSA (VI-MRSA) and of MSSA (VI-MSSA); assay: microbe, parasite or virus in culture; assay type: cell-based, Staphylococcus aureus
Protocol: as §1, §2, §3, §4
(§5) Here, the glycopeptides used were VCM and TEIC. The β-lactam used was OXA.

VRSA clinical isolates = assay: microbe, parasite or virus in culture; assay type: cell-based; conditions: Staphylococcus aureus
Protocol: as §1, §2, §3, §4, §5

Enterococcus faecalis = assay: MIC measurement, Test Example 6 (enterococcus); assay type: cell-based; conditions: Enterococcus faecalis, read-out: MIC
Protocol: as §1, §2, §3, §4
Quinolones and nybomycins were evaluated for antibacterial activity against Enterococcus faecalis shown in Table 6, wherein the other strains than NCTC12201 and NCTC12203 were subdivided from Shionogi & Co., Ltd (note that these strains are available also from the Department of Bacteriology, Juntendo University). The NCTC strains are both vancomycin-resistant E. faecalis and available from the National Collection of Type Cultures (NCTC).

Measured: MIC

C[C@H]1COc2c(N3CCN(C)CC3)c(F)cc3c(=O)c(C(=O)O)cn1c23 [LVFX, levofloxacin]
8 µg/mL: [2]; Staphylococcus aureus, 28160, VI-MRSA, South African Republic | [2]; Staphylococcus aureus, A7 (JCSC4842), VI-MRSA, Taiwan | [2]; Staphylococcus aureus, B7 (JCSC4852), VI-MRSA, Taiwan | [2]; Staphylococcus aureus, BR2, VI-MRSA, Brazil | [2]; Staphylococcus aureus, BR4, VI-MRSA, Brazil | [2]; Staphylococcus aureus, HIP07920, VI-MRSA, America | [2]; Staphylococcus aureus, HIP09313, VI-MRSA, America | [2]; Staphylococcus aureus, HIP09735, VI-MRSA, America | [2]; Staphylococcus aureus, HIP10540, VI-MRSA, America | [2]; Staphylococcus aureus, Mu50, VI-MRSA, Japan | [2]; Staphylococcus aureus, PC, VI-MRSA, America
> 128 µg/mL: [1]; MR5867-4, fourth-step mutant, further gyrA E88K | VRSA clinical isolates; VRS5, VRSA, Michigan
0.5 µg/mL: [2]; Staphylococcus aureus, SA MER-S6, VI-MSSA, France | [2]; Staphylococcus aureus, SA MER-S12, VI-MSSA, France
64 µg/mL: [1]; MS5935-3, third-step mutant, further grlA E84K | [2]; Staphylococcus aureus, MRSA / MSSA / NRS 79 / VISA, NRS79, VI-MRSA, America | Enterococcus faecalis; E. faecalis 36-15686, quinolone-resistant enterococci | Enterococcus faecalis; E. faecalis 36-15694, quinolone-resistant enterococci | Enterococcus faecalis; E. faecalis 36-15722, quinolone-resistant enterococci | Enterococcus faecalis; E. faecalis 36-15726, quinolone-resistant enterococci
≤ 0.063 µg/mL: [1]; FDA209P / MRSA / MSSA, FDA209P (MSSA), control, read-out: MIC
2 µg/mL: Enterococcus faecalis; E. faecalis 36-15718, quinolone-susceptible enterococci | Enterococcus faecalis; E. faecalis 36-15730, quinolone-susceptible enterococci | Enterococcus faecalis; E. faecalis 36-15741, quinolone-susceptible enterococci
16 µg/mL: [2]; Staphylococcus aureus, 99/3700-W, VI-MRSA, The United Kingdom | [2]; Staphylococcus aureus, 99/3759-V, VI-MRSA, The United Kingdom | [2]; Staphylococcus aureus, 98141, VI-MRSA, France | [2]; Staphylococcus aureus, AMC11094, VI-MRSA, Korea | [2]; Staphylococcus aureus, BR1, VI-MRSA, Brazil | [2]; Staphylococcus aureus, BR3, VI-MRSA, Brazil | [2]; Staphylococcus aureus, BR5, VI-MRSA, Brazil | [2]; Staphylococcus aureus, HIP06854, VI-MRSA, America | [2]; Staphylococcus aureus, HIP08926, VI-MRSA, America | [2]; Staphylococcus aureus, HIP13057, VI-MRSA, America | [2]; Staphylococcus aureus, JCSC7193, VI-MRSA, Thailand | [2]; Staphylococcus aureus, JCSC7203, VI-MRSA, Thailand | [2]; Staphylococcus aureus, MRSA / MSSA / NRS 76 / VISA, NRS76, VI-MSSA, America | [2]; Staphylococcus aureus, Mu3, VI-MRSA, Japan | [2]; Staphylococcus aureus, NJ (HIP5836), VI-MRSA, America | VRSA clinical isolates; VRS1, VRSA, Michigan | VRSA clinical isolates; VRS2, VRSA, Pennsylvania | VRSA clinical isolates; VRS3, VRSA, New York
1 µg/mL: Enterococcus faecalis; E. faecalis 36-15672, quinolone-susceptible enterococci | Enterococcus faecalis; E. faecalis 36-15673, quinolone-susceptible enterococci | Enterococcus faecalis; E. faecalis 36-15678, quinolone-susceptible enterococci | Enterococcus faecalis; E. faecalis 36-15688, quinolone-susceptible enterococci | Enterococcus faecalis; E. faecalis 36-15696, quinolone-susceptible enterococci | Enterococcus faecalis; E. faecalis 36-15720, quinolone-susceptible enterococci | Enterococcus faecalis; E. faecalis 36-15736, quinolone-susceptible enterococci | Enterococcus faecalis; NCTC 12201 / VRE, E. faecalis NCTC12201, vancomycin-resistant (VRE), quinolone-susceptible enterococci | Enterococcus faecalis; NCTC 12203 / VRE, E. faecalis NCTC12203, vancomycin-resistant (VRE), quinolone-susceptible enterococci
0.125 µg/mL: [2]; Staphylococcus aureus, SA MER-S20, VI-MSSA, France
32 µg/mL: [1]; MS5952-3, third-step mutant, further grlA A116V | [2]; Staphylococcus aureus, HIP07930, VI-MRSA, America | [2]; Staphylococcus aureus, HIP09143, VI-MRSA, America | [2]; Staphylococcus aureus, HIP09433, VI-MRSA, America | [2]; Staphylococcus aureus, HIP09662, VI-MRSA, America | [2]; Staphylococcus aureus, HIP09737, VI-MSSA, America | [2]; Staphylococcus aureus, HIP09740, VI-MRSA, America | [2]; Staphylococcus aureus, HIP10267, VI-MRSA, America | [2]; Staphylococcus aureus, HIP12864, VI-MRSA, America | [2]; Staphylococcus aureus, IL (HIP7737), VI-MRSA, America | [2]; Staphylococcus aureus, JCSC7195, VI-MRSA, Thailand | [2]; Staphylococcus aureus, LIM2, VI-MRSA, France | [2]; Staphylococcus aureus, MI (HIP5827), VI-MRSA, America | [2]; Staphylococcus aureus, MRSA / MSSA / NRS 118 / VISA, NRS118, VI-MRSA, America | VRSA clinical isolates; VRS4, VRSA, New York | VRSA clinical isolates; VRS6, VRSA, Michigan | VRSA clinical isolates; VRS7, VRSA, Michigan | Enterococcus faecalis; E. faecalis 36-15703, quinolone-resistant enterococci | Enterococcus faecalis; E. faecalis 36-15716, quinolone-resistant enterococci
4 µg/mL: [2]; Staphylococcus aureus, HIP06297, VI-MRSA, America | [2]; Staphylococcus aureus, HIP13036, VI-MRSA, America | [2]; Staphylococcus aureus, LY-1999-01, VI-MSSA, Oman | [2]; Staphylococcus aureus, LY-1999-03, VI-MRSA, Oman | [2]; Staphylococcus aureus, MRSA / MSSA / NRS 126 / VISA, NRS126, VI-MRSA, America | [2]; Staphylococcus aureus, P1V44, VI-MSSA, Belgium
